Consider 21 compounds from US10766903B2 (ALMAC DISCOVERY LIMITED, priority 2016, dated 2020).

One may read the IC50 as the concentration that inhibits the measured activity by half.

The assay has as its target USP7 (Homo sapiens (Human), UniProt Q93009). Nature of the assay: USP7 fluorescence polarisation (FP) biochemical assay, ubiquitin-Lys-TAMRA substrate. The method in brief: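 Full-length His6-USP7 (2.5 nM) incubated ± inhibitor (8-point dilutions, 200 to 0.1 μM before addition) in 50 mM HEPES pH 7.2, 150 mM NaCl, 0.5 mM EDTA, 5 mM DTT, 0.05% BSA, 0.05% CHAPS. Ubiquitin-Lys-TAMRA cleavage followed by FP (ex 530/em 575 nm) every 15 min for 1.5 h; normalised to no-compound control.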

The mark [1] stands for this setting: Table 4, biochemical assay, average of at least duplicate experiments, read-out: USP7 IC50.

Structures are written as SMILES. Read-outs that look alike come from different tables or passages of the source. Some results are limits rather than exact numbers.

Chain of USP7 (Q93009 whole entry): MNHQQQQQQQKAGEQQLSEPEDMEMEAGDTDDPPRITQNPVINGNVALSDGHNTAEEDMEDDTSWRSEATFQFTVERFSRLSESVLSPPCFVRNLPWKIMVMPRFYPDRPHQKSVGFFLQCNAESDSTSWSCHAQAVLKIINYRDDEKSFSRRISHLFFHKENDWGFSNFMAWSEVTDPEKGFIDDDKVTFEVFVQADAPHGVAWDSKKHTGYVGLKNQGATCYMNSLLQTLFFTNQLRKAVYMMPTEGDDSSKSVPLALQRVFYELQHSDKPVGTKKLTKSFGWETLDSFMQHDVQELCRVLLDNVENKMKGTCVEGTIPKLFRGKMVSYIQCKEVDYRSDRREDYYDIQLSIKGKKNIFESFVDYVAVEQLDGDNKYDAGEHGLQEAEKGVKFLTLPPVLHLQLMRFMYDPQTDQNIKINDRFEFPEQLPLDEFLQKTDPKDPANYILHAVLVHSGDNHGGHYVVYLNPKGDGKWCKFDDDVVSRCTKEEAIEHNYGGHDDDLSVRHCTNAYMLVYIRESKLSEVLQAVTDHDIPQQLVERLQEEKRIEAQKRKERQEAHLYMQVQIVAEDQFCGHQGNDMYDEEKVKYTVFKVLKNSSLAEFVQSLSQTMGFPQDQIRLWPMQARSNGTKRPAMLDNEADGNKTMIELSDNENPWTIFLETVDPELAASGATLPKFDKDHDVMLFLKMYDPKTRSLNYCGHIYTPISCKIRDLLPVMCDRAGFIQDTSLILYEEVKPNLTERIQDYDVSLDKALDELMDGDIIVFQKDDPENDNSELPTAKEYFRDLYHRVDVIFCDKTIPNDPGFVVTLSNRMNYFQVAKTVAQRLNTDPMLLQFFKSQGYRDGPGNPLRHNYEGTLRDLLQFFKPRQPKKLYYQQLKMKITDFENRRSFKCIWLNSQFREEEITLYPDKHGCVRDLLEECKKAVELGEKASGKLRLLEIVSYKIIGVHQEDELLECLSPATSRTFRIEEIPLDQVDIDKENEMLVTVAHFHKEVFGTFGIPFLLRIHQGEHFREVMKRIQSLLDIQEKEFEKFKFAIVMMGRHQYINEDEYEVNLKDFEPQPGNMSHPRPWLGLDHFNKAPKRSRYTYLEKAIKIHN

For `Cn1nc2c(=O)n(CC3(O)CCN(C(=O)C[C@H](c4ccccc4)C(F)(F)F)CC3)cnc2c1-c1ccccc1` [Example 37, (R)-6-((4-Hydroxy-1-(4,4,4-trifluoro-3-phenylbutanoyl)piperidin-4-yl)methyl)-2-methyl-3-phenyl-2H-pyrazolo[4,3-d]pyrimidin-7(6H)-one], under setting [1], the IC50 was 250 to 999 nM.

Take `[2H]C1([2H])Oc2ccc(-n3c(Cl)cc4c(=O)n(CC5(O)CCN(C(=O)c6cnc(C7CC7)o6)CC5)cnc43)cc2O1` [Example 236, 7-(Benzo[d][1,3]dioxol-5-yl-2,2-d2)-6-chloro-3-((1-(2-cyclopropyloxazole-5-carbonyl)-4-hydroxypiperidin-4-yl)methyl)-3,7-dihydro-4H-pyrrolo[2,3-d]pyrimidin-4-one]: under setting [1], the IC50 is under 250 nM.

`Cn1nc2c(=O)n(CC3(O)CCN(C(=O)C4(C)CC4)CC3)cnc2c1-c1ccc(C(=O)O)cc1` [Example 245, 4-(6-((4-Hydroxy-1-(1-methylcyclopropane-1-carbonyl)piperidin-4-yl)methyl)-2-methyl-7-oxo-6,7-dihydro-2H-pyrazolo[4,3-d]pyrimidin-3-yl)benzoic Acid]: the IC50 under setting [1] was 1000 to 200000 nM.

For the compound `C[C@H](CC(=O)N1CCC(O)(Cc2cnc(-c3ccccc3)cn2)CC1)c1ccccc1` [Example 115, (R)-1-(4-Hydroxy-4-((5-phenylpyrazin-2-yl)methyl)piperidin-1-yl)-3-phenylbutan-1-one], the IC50 under setting [1] fell in the range of 1000 to 200000 nM.

With `C[C@H](CC(=O)N1CCC(O)(Cn2cnc(N3CC4(CCOC4)C3)cc2=O)CC1)c1ccccc1` [Example 176, (R)-3-((4-hydroxy-1-(3-phenylbutanoyl)piperidin-4-yl)methyl)-6-(6-oxa-2-azaspiro[3.4]octan-2-yl)pyrimidin-4(3H)-one], where the note is “USP7 IC50, Table 4, biochemical assay, average of at least duplicate experiments”, the IC50 was 250 to 999 nM.

Consider `Cn1cc(-c2cccc(-n3c(Cl)cc4c(=O)n(CC5(O)CCN(C(=O)c6cnc(C7CC7)o6)CC5)cnc43)c2)cn1` [Example 211, 6-Chloro-3-((1-(2-cyclopropyloxazole-5-carbonyl)-4-hydroxypiperidin-4-yl)methyl)-7-(3-(1-methyl-1H-pyrazol-4-yl)phenyl)-3H-pyrrolo[2,3-d]pyrimidin-4(7H)-one], for which, under setting [1], the IC50 is under 250 nM.

`C[C@H](CN1CCCC1)Nc1cc(=O)n(CC2(O)CCN(C(=O)C[C@@H](C)c3ccccc3)CC2)cn1` [Example 60, 3-((4-Hydroxy-1-((R)-3-phenylbutanoyl)piperidin-4-yl)methyl)-6-(((R)-1-(pyrrolidin-1-yl)propan-2-yl)amino)pyrimidin-4(3H)-one, Formic Acid]: the IC50 under setting [1] was under 250 nM.

Consider `CC1(C(=O)N2CCC(O)(Cn3cnc4c(cc(Cl)n4-c4csc(CO)c4)c3=O)CC2)CC1` [Example 201, 6-Chloro-3-((4-hydroxy-1-(1-methylcyclopropanecarbonyl)piperidin-4-yl)methyl)-7-(5-(hydroxymethyl)thiophen-3-yl)-3H-pyrrolo[2,3-d]pyrimidin-4(7H)-one], for which the IC50 under setting [1] is under 250 nM.

For `C[C@H](N)c1ccc(-c2c3ncn(CC4(O)CCN(C(=O)C[C@H](c5ccccc5)C(F)(F)F)CC4)c(=O)c3nn2C)cc1` [Example 76, 3-(4-((S)-1-Aminoethyl)phenyl)-6-((4-hydroxy-1-((R)-4,4,4-trifluoro-3-phenylbutanoyl)piperidin-4-yl)methyl)-2-methyl-2H-pyrazolo[4,3-d]pyrimidin-7(6H)-one], the IC50 under setting [1] was under 250 nM.

For `Cn1nccc1-c1cccc(-n2c(Cl)cc3c(=O)n(CC4(O)CCN(C(=O)C5(C)CC5)CC4)cnc32)c1` [Example 208, 6-Chloro-3-((4-hydroxy-1-(1-methylcyclopropanecarbonyl)piperidin-4-yl)methyl)-7-(3-(1-methyl-1H-pyrazol-5-yl)phenyl)-3H-pyrrolo[2,3-d]pyrimidin-4(7H)-one], the IC50 under setting [1] was 250 to 999 nM.

For `Cn1nc2c(=O)n(CC3(O)CCN(C(=O)OCc4ccccc4)CC3)cnc2c1-c1ccc(CN)cc1` [Example 112, Benzyl 4-((3-(4-(aminomethyl)phenyl)-2-methyl-7-oxo-2,7-dihydro-6H-pyrazolo[4,3-d]pyrimidin-6-yl)methyl)-4-hydroxypiperidine-1-carboxylate], under setting [1], the IC50 was in the range of 1000 to 200000 nM.

Regarding `CCn1nc2c(=O)n(CC3(O)CCN(C(=O)C[C@H](c4ccccc4)C(F)(F)F)CC3)cnc2c1-c1ccc(CN)cc1` [Example 120], the IC50 under setting [1] is under 250 nM.

For the compound `Cn1nc2c(=O)n(CC3(O)CCN(C(=O)CCc4ccccc4)CC3)cnc2c1C(F)(F)F` [Example 39, 6-((4-Hydroxy-1-(3-phenylpropanoyl)piperidin-4-yl)methyl)-2-methyl-3-(trifluoromethyl)-2H-pyrazolo[4,3-d]pyrimidin-7(6H)-one], the half-inhibitory concentration (IC50) by setting is: (Table 3, effect of the R2 substituent, read-out: USP7 IC50) 14000 nM; under setting [1], 1000 to 200000 nM.

Consider `CC(C)c1c2c(nn1C)C(=O)N(CC1(O)CCN(C(=O)C[C@@H](C)c3ccccc3)CC1)CN2` [Example 34, (R)-6-((4-Hydroxy-1-(3-phenylbutanoyl)piperidin-4-yl)methyl)-3-isopropyl-2-methyl-5,6-dihydro-2H-pyrazolo[4,3-d]pyrimidin-7(4H)-one], for which, under setting [1], the IC50 lay within 1000 to 200000 nM.

With `CC1(C(=O)N2CCC(O)(Cn3cnc4c(cc(Cl)n4-c4cccc(Br)c4)c3=O)CC2)CC1` [Example 214, 7-(3-Bromophenyl)-6-chloro-3-((4-hydroxy-1-(1-methylcyclopropanecarbonyl)piperidin-4-yl)methyl)-3H-pyrrolo[2,3-d]pyrimidin-4(7H)-one], under setting [1], the half-maximal inhibitory concentration (IC50) lay in the range of 250 to 999 nM.

For `NCc1ccc(-n2cnc3c(=O)n(CC4(O)CCN(C(=O)C[C@H](c5ccccc5)C(F)(F)F)CC4)cnc32)cc1` [Example 77, (R)-9-(4-(Aminomethyl)phenyl)-1-((4-hydroxy-1-(4,4,4-trifluoro-3-phenylbutanoyl)piperidin-4-yl)methyl)-1H-purin-6(9H)-one], the IC50 under setting [1] is under 250 nM.

With `CCOC(=O)NCc1ccc(-c2c3ncn(CC4(O)CCN(C(=O)C[C@@H](C)c5ccccc5)CC4)c(=O)c3nn2C)cc1` [Example 194, (R)-Ethyl 4-(6-((4-hydroxy-1-(3-phenylbutanoyl)piperidin-4-yl)methyl)-2-methyl-7-oxo-6,7-dihydro-2H-pyrazolo[4,3-d]pyrimidin-3-yl)benzylcarbamate], under setting [1], the IC50 was under 250 nM.

On to `C[C@H](CC(=O)N1CCC(O)(Cn2cnc(N3CC(F)C3)cc2=O)CC1)c1ccccc1` [Example 165, (R)-6-(3-fluoroazetidin-1-yl)-3-((4-hydroxy-1-(3-phenylbutanoyl)piperidin-4-yl)methyl)pyrimidin-4(3H)-one], for which, under setting [1], the IC50 was in the range of 1000 to 200000 nM.

As to `C[C@H](CC(=O)N1CCC(O)(Cn2cnc3c(nc(C(F)(F)F)n3C)c2=O)CC1)c1ccccc1` [Example 96, (R)-1-((4-Hydroxy-1-(3-phenylbutanoyl)piperidin-4-yl)methyl)-9-methyl-8-(trifluoromethyl)-1H-purin-6(9H)-one], the IC50 under setting [1] fell in the range of 1000 to 200000 nM.

Consider `C[C@H](CC(=O)N1CCC(O)(Cn2cnc(NCCNc3ccccc3)cc2=O)CC1)c1ccccc1` [Example 146, (R)-3-((4-hydroxy-1-(3-phenylbutanoyl)piperidin-4-yl)methyl)-6-((2-(phenylamino)ethyl)amino)pyrimidin-4(3H)-one], for which the IC50 under setting [1] is 1000 to 200000 nM.

For `CC1(C(=O)N2CCC(O)(Cn3cnc4c(nnn4-c4ccccc4)c3=O)CC2)CC1` [Example 197, 6-((4-Hydroxy-1-(1-methylcyclopropanecarbonyl)piperidin-4-yl)methyl)-3-phenyl-3H-[1,2,3]triazolo[4,5-d]pyrimidin-7(6H)-one], under setting [1], the IC50 fell in the range of 1000 to 200000 nM.
